Values after ≈ are worked out from the molar mass of the structure shown. Where a SMILES comes first, the peptide text is derived from it. Side-chain parts run from the residue outwards. The star is where a group is joined. Lauroyl = CCCCCCCCCCCC(=O)*
Assays:
S. aureus biofilm = test: Activity against Staphylococcus aureus biofilm (MBEC, TTC); format: cell-based; settings: for reduction of staphylococcal biofilm: 24 h, TTC read-out 490 nm, ANOVA with Tukey's test p < 0.05
Method: A total of 100µL of S. aureus suspension (10^5 cfu/mL) in TSB) medium was introduced to wells of 96-well plate and incubated at 37 °C/24 h without shaking. Next, whole medium was removed, leaving biofilm-forming organisms attached to the bottom of a 96-well plate. Subsequently, geometric dilutions of peptides in TSB (62.5–250 mg/L) were applied to the wells and left for another 24 h at 37 °C. The culture with no added peptide served as a positive control for microorganism growth, while the well containing the sterile TSB only served as a sterility control for the experiment. After incubation, 5 µL of triphenyl tetrazolium chloride (TTC, Sigma Aldrich, Taufkirchern, Germany) was added to each well and incubated for 5 h at 37 °C. A change of colorless TTC to red formazan confirmed the presence of metabolically active microorganisms. Next, the formazan was dissolved in methanol and its concentration was measured using a Thermo Scientific Multiskan Go spectrometer with a wavelength of 490 nm. In parallel, biofilms in plate wells were agitated using an automated pipette, removed from 96-well plates, and spotted on a stable (M-H) agar plate (Biomaxima, Lublin, Poland) where they were incubated for 48 h. The presence of living colonies on agar indicated the lack of MBEC, while the absence of colonies in the place where spotting was performed confirmed that the particular concentration of peptide can be considered the MBEC.

S. aureus = settings: 24 h
C. acnes = settings: 24 h
[1] = DPPH radical scavenging activity; settings: absorbance at 522 nm, 25 °C, triplicate
Method: The DPPH spectrometric method described by Brand, Williams et al. was applied due to its efficiency on lipophilic and hydrophilic samples [60]. The evaluation of free radical scavenging capacity (FRSC) was based on DPPH (Merck, Darmstadt, Germany) absorbance intensity resulting from its reaction with surfactants. A PG Instruments UV–Vis T60 spectrophotometer (Alab, Warszawa, Poland), interfaced with a computer with a quartz cuvette and of path length 1.0 cm at 25 °C, using a total volume of 3.0 mL, was applied in the range 190–900 nm. As a sample (As) 1.0 mL of P1–P6 aqueous solution (2 mg/mL) and 2.0 mL of ethanolic DPPH solution (5.9·10–2 mg/mL) were mixed and evaluated. As a blank (Ab), 1.0 mL of water, mixed with 2.0 mL of ethanol, was used. Absorbance decrease at 522 nm was measured in 2 min intervals for 6 h. FRSC was calculated as a percentage with the following equation: FRSC (%) = [(Ab – As)/Ab] × 100%. All measurements were performed in triplicate.

S. aureus 6538 [2] = settings: for antimicrobial activity against planktonic S. aureus (in words): Figure 4, highest tested 250 mg/L; for concentration at which reduction of staphylococcal cell number was observed: planktonic S. aureus, Figure 4; for MBC: 6538, 24 h
Method: For experimental purposes, the American type culture collection’s strains of S. aureus 6538 and C. acnes 6919 were applied.
The following standard procedure of MBC evaluation according to CLSI (Methods for Determining Bactericidal Activity of Antimicrobial Agents; Approved Guideline, document M26A, Global Laboratory Standards for a Healthier World, https://clsi.org, accessed on 15 December 2020) was performed. The 96-well plates with bacteria and peptide concentrations were performed and incubated as it was described in Section 2 of Material and Methods. Then the M-H agar plates with spots containing staphylococcal culture were incubated at 37 °C for 24 h. Lack of colony presence in the spot after incubation was considered as lack of microorganism growth, while presence of microbial colony in the spot was considered presence of microorganism growth. All experiments were performed in triplicate.

S. aureus 6538 [3] = test: Minimal inhibitory concentration against planktonic Staphylococcus aureus; format: cell-based; settings: M-H broth, 24 h/37 °C, tested 0.48-250 mg/L, turbidity 580 nm, triplicate
Method: A loop of staphylococcal culture grown on Columbia agar plate (BioMaxima, Poland) was transferred to liquid tryptone soya broth (TSB, BTL) and incubated at 37 °C for 24 h. Next, culture’s optical density of 1 McFarland (3 × 10^8 cfu/mL) was established using a densitometer (Biomerieux, Poland). Subsequently, the suspension was diluted in the Miller-Hinton Broth (M-H, BioMaxima, Poland) to reach the density of 1 × 10^5 cells/mL. Afterwards, serial dilutions of each peptide was performed in M-H Broth in 96-well plate (BioStar, Germany). Next 100 μL of previously-prepared microbial suspension was added to each well. The highest concentration of each peptide tested in this experimental setting was thus 250 mg/L and it dropped twice in each subsequent well of 96-well plate up to 0.48 mg/L. Plates were incubated for 24 h/37 °C in shaker (Lab Companion, JeioTech, Daejeon, Korea). After incubation, the turbidity of bacterial culture was measured using Thermo Scientific Multiskan Go spectrometer (Thermo-Fischer Scientific, Vantaa, Finland) with wavelength of 580 nm. The microbial culture where no peptide was added served as growth control. The sterility control setting was M-H broth with no microorganism added. The tetrazolium salt (TTC) test served as additional analysis of microbial cell number reduction. All experiments were performed in triplicate.

| Molecule | MBEC (S. aureus biofilm; 24 h S. aureus biofilm in TSB, peptides 62.5–250 mg/L for 24 h at 37 °C, spotting on M-H agar) | reduction of staphylococcal biofilm (S. aureus biofilm; exposure to 125 mg/L) | reduction of staphylococcal biofilm (S. aureus biofilm; exposure to 250 mg/L) | Inhibition Zone (S. aureus) | Inhibition Zone (C. acnes) | DPPH radicals inhibited over six hours ([1]; peptide 2 mg/mL, six hours) | antimicrobial activity against planktonic S. aureus (in words) (S. aureus 6538 [2]) | concentration at which reduction of staphylococcal cell number was observed (S. aureus 6538 [2]) | time required for the extinction of fifty percent of the DPPH ([1]; peptide 2 mg/mL aqueous (1.0 mL) + 2.0 mL ethanolic DPPH 5.9·10–2 mg/mL) | MBC (S. aureus 6538 [2]) | MIC (S. aureus 6538 [3]) |
| --- | --- | --- | --- | --- | --- | --- | --- | --- | --- | --- | --- |
| NCCCC[C@H](NC(=O)[C@H](Cc1c[nH]c2ccccc12)NC(=O)[C@H](CCCCN)NC(=O)[C@H](Cc1c[nH]c2ccccc12)NC(=O)[C@H](CCCCNC(=O)[C@H](CCCCN)NC(=O)[C@H](Cc1c[nH]c2ccccc12)NC(=O)[C@H](CCCCN)NC(=O)[C@@H](N)Cc1c[nH]c2ccccc12)NC(=O)[C@H](CCCCN)NC(=O)[C@H](Cc1c[nH]c2ccccc12)NC(=O)[C@H](CCCCN)NC(=O)[C@@H](N)Cc1c[nH]c2ccccc12)C(N)=O [Peptide P2, (WKWK)2-KWKWK-NH2] (H-WKWKK([Lys-Trp-Lys-Trp])WKWK-NH2) | not achieved | significant reduction | significant reduction | 0 mm | 1.6 ± 0.9 mm | – | – | – | – | – | – |
| CCCCCCCCCCCC(=O)NCCCC[C@H](NC(=O)CCCCCCCCCCC)C(=O)N[C@@H](CCCCN)C(=O)N[C@@H](CCCCN)C(=O)N[C@@H](CCCCN)C(N)=O [Peptide P4, (C12)2-KKKK-NH2] (Lauroyl-K(Lauroyl)KKK-NH2) | – | significant reduction | significant reduction | 0 mm | 0 mm | < 20% | highest anti-staphylococcal activity | 62.5 mg/L | – | – | – |
| NCCCC[C@H](NC(=O)[C@H](Cc1c[nH]c2ccccc12)NC(=O)[C@@H](N)CCCCN)C(=O)NCCCC[C@H](NC(=O)[C@H](CCCCN)NC(=O)[C@H](Cc1c[nH]c2ccccc12)NC(=O)[C@@H](N)CCCCN)C(=O)N[C@@H](Cc1c[nH]c2ccccc12)C(=O)N[C@@H](Cc1c[nH]c2ccccc12)C(=O)N[C@@H](Cc1c[nH]c2ccccc12)C(N)=O [Peptide P5, (KWK)2-KWWW-NH2] (H-KWKK([Lys-Trp-Lys])WWW-NH2; N-terminus assumed) | – | – | significant reduction | 1 mm | 2 mm | – | – | 125 mg/L | 124 min | 250 µg/mL (≈ 157 µM) | – |
| NCCCC[C@H](NC(=O)[C@@H](N)CCCCN)C(=O)NCCCC[C@H](NC(=O)[C@H](CCCCN)NC(=O)[C@@H](N)CCCCN)C(=O)N[C@@H](Cc1c[nH]c2ccccc12)C(=O)N[C@@H](Cc1c[nH]c2ccccc12)C(=O)N[C@@H](Cc1c[nH]c2ccccc12)C(N)=O [Peptide P6, (KK)2-KWWW-NH2] (H-KKK([Lys-Lys])WWW-NH2; N-terminus assumed) | – | significant reduction | significant reduction | 0 mm | 0 mm | – | – | 125 mg/L | – | 250 µg/mL (≈ 205 µM) | – |
| (WK)2-KWK-NH2 [Peptide P1] | – | – | – | – | – | – | lack of antimicrobial activity | – | – | – | not observed |
| (WR)2-KWR-NH2 [Peptide P3] | – | – | – | – | – | – | recordable antimicrobial activity, however only in the highest concentrations of 250 mg/L | – | – | – | – |

— publication PMC8306634, “Antimicrobial and Antioxidative Activity of Newly Synthesized Peptides Absorbed into Bacterial Cellulose Carrier against Acne vulgaris” (International Journal of Molecular Sciences, 2021)
